According to patent publication US20220002267A1, “TYROSINE KINASE 2 INHIBITORS, PREPARATION METHODS AND MEDICINAL USES THEREOF” (Eternity Bioscience Inc., priority 2020, published 2022):

Legend:
Tyk2 JH2 Pseudokinase = target: T1, Tyk2 JH2 Pseudokinase (Homo sapiens, UniProt P29597); assay: KdELECT Competition Binding Assay; settings: 11-point 3-fold dilution series; performed by Eurofins DiscoverX
T1 construct: purchased Eurofins DiscoverX Corporation (CRO); host or cells: E. coli BL21-derived host (T7 phage) or HEK-293 cells
Method: The KdELECT Competition Binding Assay is performed by a CRO, Eurofins DiscoverX Corporation following the established standard protocol (DiscoverX, San Diego, Calif.). Briefly, Kinase-tagged T7 phage strains were prepared in an E. coli host derived from the BL21 strain. E. coli were grown to log-phase and infected with T7 phage and incubated with shaking at 32° C. until lysis. The lysates were centrifuged and filtered to remove cell debris. The remaining kinases were produced in HEK-293 cells and subsequently tagged with DNA for qPCR detection. Streptavidin-coated magnetic beads were treated with biotinylated small molecule ligands for 30 minutes at room temperature to generate affinity resins for kinase assays. The liganded beads were blocked with excess biotin and washed with blocking buffer (SeaBlock (Pierce), 1% BSA, 0.05% Tween 20, 1 mM DTT) to remove unbound ligand and to reduce nonspecific binding. Binding reactions were assembled by combining kinases, liganded affinity beads, and test compounds in 1× binding buffer (20% SeaBlock, 0.17×PBS, 0.05% Tween 20, 6 mM DTT). Test compounds were prepared as 111-fold stocks in 100% DMSO. Kds were determined using an 11-point 3-fold compound dilution series with three DMSO control points. All compounds for Kd measurements are distributed by acoustic transfer (non-contact dispensing) in 100% DMSO. The compounds were then diluted directly into the assays such that the final concentration of DMSO was 0.9%. All reactions performed in polypropylene 384-well plate. Each was a final volume of 0.02 mL. The assay plates were incubated at room temperature with shaking for 1 hour and the affinity beads were washed with wash buffer (1×PBS, 0.05% Tween 20). The beads were then re-suspended in elution buffer (1×PBS, 0.05% Tween 20, 0.5 μM non-biotinylated affinity ligand) and incubated at room temperature with shaking for 30 minutes. The kinase concentration in the eluates was measured by quantitative PCR.
Compound Handling: An 11-point 3-fold serial dilution of each test compound was prepared in 100% DMSO at 100-fold final test concentration and subsequently diluted to 1-fold in the assay (final DMSO concentration=1%). Most Kds were determined using a compound top concentration=30,000 nM. If the initial Kd determined was <0.5 nM (the lowest concentration tested), the measurement was repeated with a serial dilution starting at a lower top concentration.

[1] = tested on: Tyk2-mediated, IFNα-induced STAT1 phosphorylation in human Kit225 T cell line; assay: IFNα_Kit225 T Cell Assay (phosphorylated-STAT1, AlphaLISA); assay type: cell-based; settings: Kit225 cells, compound 1 hour, human recombinant IFNα 20 minutes, pSTAT1; read-out: IFN-α Kit225 (IC50)
Method: (§1) Kit225 cells were seeded in 384-well plate at a density of 0.5×10^5 cells/well in 4 μL HBSS, and incubated for 2 hours in a humidified, 5% CO2 cell culture incubator at 37° C. The cells were treated with serial diluted compounds for 1 hour and stimulated with human recombinant IFNα (Biolegend) for 20 minutes. The treated cells were then lysed and cellular phosphorylated-STAT1 levels were measured by AlphaLISA (PerkinElmer) according to the manufacture's instructions. Inhibition data were calculated by comparison to vehicle control wells for 0% inhibition and non-stimulated control wells for 100% inhibition. Dose response curves were then generated to determine the concentration required to suppress 50% of cellular response (IC50) as derived by non-linear regression analysis using GraphPad Prism.

[2] = tested on: Tyk2-mediated, IL23-induced STAT3 phosphorylation in human Kit225 T cell line; assay: IL-23_Kit225 T Cell Assay (phosphorylated-STAT3, AlphaLISA); assay type: cell-based; settings: Kit225 cells, compound 1 hour, human recombinant IL-23 20 minutes, pSTAT3
Method: as §1, with “Kit225 cells (licensed from Professor Toshiyuki Hori, Ritsumeikan University, Japan) were seeded” for “Kit225 cells were seeded”, “density of 1×10^5 cells/well in” for “density of 0.5×10^5 cells/well in”, “4 μL Hank's Balanced Salt Solution (HBSS, Gibco), and incubated” for “4 μL HBSS, and incubated”, “human recombinant IL-23 (R&D Systems) for 20” for “human recombinant IFNα (Biolegend) for 20”, “and cellular phosphorylated-STAT3 levels were” for “and cellular phosphorylated-STAT1 levels were”

[3] = tested on: experimental autoimmune disease models (psoriasis, SLE, and IBD); settings: cited from earlier work
[4] = tested on: IL-12/IL-23 and Type I IFN pathways; settings: Tokarski et al. 2015; cited from earlier work

T1 sequence (P29597 589-875 limits assumed): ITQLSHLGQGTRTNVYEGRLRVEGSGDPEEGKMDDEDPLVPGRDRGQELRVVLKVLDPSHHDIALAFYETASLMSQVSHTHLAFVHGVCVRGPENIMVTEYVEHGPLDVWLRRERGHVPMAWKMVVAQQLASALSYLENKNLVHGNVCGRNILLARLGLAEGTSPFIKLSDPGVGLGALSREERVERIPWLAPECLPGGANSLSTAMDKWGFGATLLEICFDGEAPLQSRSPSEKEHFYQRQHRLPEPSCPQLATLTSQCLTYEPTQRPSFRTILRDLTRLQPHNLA

Molecule `CNC(=O)c1nnc(Nc2ccc(N3CCC3)cn2)cc1Nc1cccc(-c2ncn(C)n2)c1OC` [Example A1, 6-((5-(azetidin-1-yl)pyridin-2-yl)amino)-4-((2-methoxy-3-(1-methyl-1H-1,2,4-triazol-3-yl)phenyl)amino)-N-methylpyridazine-3-carboxamide] has a Kd (Tyk2 JH2 Pseudokinase) of 0.067 nM, an IC50 [1] of 11 nM and an IC50 [2] of 6.7 nM.
In the case of `CNC(=O)c1nnc(Nc2ccc(N3CC(F)(F)C3)cn2)cc1Nc1cccc(-c2ncn(C)n2)c1OC` [Example A2, 6-((5-(3,3-difluoroazetidin-1-yl)pyridin-2-yl)amino)-4-((2-methoxy-3-(1-methyl-1H-1,2,4-triazol-3-yl)phenyl)amino)-N-methylpyridazine-3-carboxamide], the Kd (Tyk2 JH2 Pseudokinase) is reported as 0.0063 nM, the IC50 [1] is reported as 25 nM and the IC50 [2] is reported as 31 nM.
`CNC(=O)c1nnc(Nc2cccc(N3CCC3)n2)cc1Nc1cccc(-c2ncn(C)n2)c1OC` [Example A3, 6-((6-(azetidin-1-yl)pyridin-2-yl)amino)-4-((2-methoxy-3-(1-methyl-1H-1,2,4-triazol-3-yl)phenyl)amino)-N-methylpyridazine-3-carboxamide] showed a Kd (Tyk2 JH2 Pseudokinase) of 0.011 nM, an IC50 [1] of 6 nM and an IC50 [2] of 15 nM.
Work on `[2H]C([2H])([2H])NC(=O)c1nnc(Nc2ccc(N3CC(OC)C3)cn2)cc1Nc1cccc(-c2ncn(C)n2)c1OC` [Example A4, 4-((2-methoxy-3-(1-methyl-1H-1,2,4-triazol-3-yl)phenyl)amino)-6-((5-(3-methoxyazetidin-1-yl)pyridin-2-yl)amino)-N-(methyl-d3)pyridazine-3-carboxamide] yielded a Kd (Tyk2 JH2 Pseudokinase) of 0.0052 nM, an IC50 [1] of 83 nM and an IC50 [2] of 5.9 nM.
Work on `[2H]C([2H])([2H])NC(=O)c1nnc(Nc2ccc(C3(O)COC3)cn2)cc1Nc1cccc(-c2ncn(C)n2)c1OC` [Example A5, 6-((5-(3-hydroxyoxetan-3-yl)pyridin-2-yl)amino)-4-((2-methoxy-3-(1-methyl-1H-1,2,4-triazol-3-yl)phenyl)amino)-N-(methyl-d3)pyridazine-3-carboxamide] yielded a Kd (Tyk2 JH2 Pseudokinase) of 0.0043 nM, an IC50 [1] of 230 nM and an IC50 [2] of 38 nM.
In the case of BMS986165, the “in vivo efficacy in experimental autoimmune disease models” value [3] is listed as “substantial in vivo efficacy” and the “block of IL-12/IL-23 and Type I IFN pathways” value [4] is listed as “effectively block”.
